Source: article PMC4156869 (Journal of the American Chemical Society, 2014)

Target: T1, GalK2 (N-acetyl-galactosamine kinase) (Homo sapiens, UniProt Q01415)
T1 sequence (Q01415 1-458): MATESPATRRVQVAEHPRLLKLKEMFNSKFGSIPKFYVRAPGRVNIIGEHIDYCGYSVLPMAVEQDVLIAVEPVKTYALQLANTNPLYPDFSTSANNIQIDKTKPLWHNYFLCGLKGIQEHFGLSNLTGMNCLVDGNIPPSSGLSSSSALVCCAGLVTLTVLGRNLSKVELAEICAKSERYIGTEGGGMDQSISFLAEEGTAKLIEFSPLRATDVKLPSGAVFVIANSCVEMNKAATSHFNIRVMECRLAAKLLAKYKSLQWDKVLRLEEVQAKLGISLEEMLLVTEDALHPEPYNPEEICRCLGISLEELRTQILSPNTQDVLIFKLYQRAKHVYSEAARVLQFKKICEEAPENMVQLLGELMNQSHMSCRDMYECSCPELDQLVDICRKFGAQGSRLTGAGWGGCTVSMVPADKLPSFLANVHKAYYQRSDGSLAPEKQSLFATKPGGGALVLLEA
Assay: […]gamma-ATP phosphorylation, Dowex column, scintillation counting
Format: biochemical
Settings: 40 mM sugar, 5 mM ATP, 10 mM MgCl2, 50 mM Tris HCl pH 8.0, 37 °C

## CC(=O)N[C@H]1C(O)O[C@H](CO)[C@@H](O)[C@@H]1O (some centres unmarked) [GlcNAc]
  [32P]gamma-ATP phosphorylation, Dowex column, scintillation counting: GalK2 readily phosphorylated both GalNAc and GlcNAc

## CC(=O)N[C@H]1C(O)O[C@H](CO)[C@H](O)[C@@H]1O (some centres unmarked) [GalNAc]
  [32P]gamma-ATP phosphorylation, Dowex column, scintillation counting: GalK2 readily phosphorylated both GalNAc and GlcNAc
